Laboratory results reported in PMC6897945, “CytA, a reductase in the cytorhodin biosynthesis pathway, inactivates anthracycline drugs in Streptomyces” (Communications Biology, 2019).
pIC50: −log10 of the molar value. ≈ marks a conversion by molar mass, not a printed value.

How the values were obtained:
[1] = tested on: B. thuringiensis BT01; assay: Antibacterial activity, broth dilution MIC; assay type: cell-based; settings: Bacillus thuringiensis, BT01, read-out: MIC values, BT
Outline: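 Twofold serial dilutions in MH broth were tested by broth dilution per CLSI standard methods. The panel was B. subtilis BS01, S. aureus ATCC 29213 and 745524, B. thuringiensis BT01 and E. faecalis ATCC 29212.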

[2] = tested on: Streptomyces sp. SCSIO 1666 ΔcytA mutant strain; assay: Growth inhibition zone assay; assay type: cell-based; settings: Streptomyces, read-out: inhibition zone
Description: (§1) We also noted that the ∆cytA mutant strain accumulated small amounts (80~100-fold lower than WT producer) of the immediate biosynthetic precursors of cosmomycins A (3) and B (4). The in vitro antimicrobial activities of compounds 1–13 against a panel of gram-positive bacteria (Table 2) provided some insight into the possible physiological significance of CytA-catalyzed reductions. Furthermore, we had observed that the ΔcytA mutant strain is clearly impaired relative to the WT strain upon addition of 6 or 7 as potential substrates. To evaluate this effect, we probed the sensitivity of Streptomyces sp. SCSIO 1666 to 6 and 7 in an inhibition zone assay (Fig. 3). A clear inhibition zone (16 mm) using the ΔcytA mutant plate was observed when supplemented with 1 μg of 6 or 7. […] That CytA production endows cosmomycin resistance provides strong evidence that the cytA gene directly confers Streptomyces. sp. SCSIO 1666 with the ability to protect itself from the effects by self-resistance to cosmomycins C and D.
(§2) Fig. 3 Sensitivity of Streptomyces sp. SCSIO 1666 toward cosmomycin C (6) and cosmomycin D (7) (1 μg) as determined by growth inhibition zone assays. […] TEXT PRINTED IN THE PICTURE: 6: ΔcytA mutant strain: 16 mm DOUBTS OF THE COPYIST ABOUT THIS PICTURE: 6, ΔcytA mutant strain: the small yellow print reads 16 mm, but it could be 15 or 18 mm / 6: the yellow double arrow marked 16 mm spans the zone around disc 6. The picture prints no measure name, so it may be the inhibition zone diameter or only a scale mark

[3] = tested on: Streptomyces sp. SCSIO 1666 WT; assay: Growth inhibition zone assay; assay type: cell-based; settings: WT producer, paper discs impregnated with compound, 1 μg
Description: as §1, §2

[4] = tested on: MDA-MB-468 cells; settings: read-out: IC50 against MDA-MB-468 cells; cited from earlier work

## CC[C@@]1(O)C[C@H](O[C@H]2C[C@H](N(C)C)[C@H](O[C@H]3C[C@H](O)[C@H](O[C@H]4CC[C@H](O)[C@H](C)O4)[C@H](C)O3)[C@H](C)O2)c2c(O)c3c(c(O)c2[C@H]1O[C@H]1C[C@H](N(C)C)[C@H](O[C@H]2C[C@H](O)[C@H](O[C@H]4CC[C@H](O)[C@H](C)O4)[C@H](C)O2)[C@H](C)O1)C(=O)c1cccc(O)c1C3=O [Compound 7, cosmomycin D]
[1]
  MIC: 0.125 µg/mL (≈ 0.105 µM)
[2]
  zone of inhibition at 1 µg/disc: 16 mm
[3]
  growth inhibition near paper discs: little to no growth inhibition

## CC[C@@]1(O)C[C@H](O[C@H]2C[C@H](N(C)C)[C@@H](O[C@H]3C[C@H](O)[C@@H](O[C@H]4CC[C@H](O)[C@H](C)O4)[C@H](C)O3)[C@H](C)O2)c2c(O)c3c(c(O)c2[C@H]1O[C@H]1C[C@H](N(C)C)[C@@H](O[C@H]2CC[C@H](O[C@H]4CC[C@H](O)[C@H](C)O4)[C@H](C)O2)[C@H](C)O1)C(=O)c1cccc(O)c1C3=O [Compound 6, cosmomycin C]
[4]
  pIC50: 6.68
[1]
  MIC: 0.125 µg/mL (≈ 0.107 µM)
[2]
  zone of inhibition at 1 µg/disc: 16 mm
[3]
  growth inhibition near paper discs: little to no growth inhibition
